Data as given in article PMC3765993, “The duration of sleep promoting efficacy by dual orexin receptor antagonists is dependent upon receptor occupancy threshold” (BMC Neuroscience, 2013).
Marks after values point to notes of the source that are not given here.

How the values were obtained:
[1] = Plasma and CSF compound levels in satellite rats; conditions: rat, in vivo, 100 mg/kg
Protocol: Separately, the relationship between OX2R occupancy relative to plasma exposure was determined by administering DORA-12 intravenously (i.v.) over a range of doses to transgenic rats expressing human OX2R to determine a full occupancy curve over a wide range of plasma concentrations in order to define the maximal occupancy against which raw occupancy values could be normalized. This relationship was then used to determine the OX2R occupancy in PSG experiments from measured plasma concentrations.
Occupancy of human OX2R in transgenic rats expressing the receptor via the rat enolase promoter was performed ex vivo in radioligand-binding-displacement assays essentially as previously described with minor modifications. To determine the relationship between OX2R occupancy for a given compound over a full range of plasma and CSF concentrations, hOX2R-expressing rats were dosed i.v. with compound. Immediately following 30 min of i.v. administration, animals were anesthetized, sacrificed, and CSF, blood, and brain tissue were harvested and frozen for analysis. Frozen tissue was weighed and thawed coincident with homogenization. The homogenate was pelleted at 21,000 × g for 1 min and the pellet was resuspended. […] Non-specific binding was determined by the addition of 1000-fold excess unlabeled ligand. Experimental (dosed)-specific binding was compared with control (vehicle-dosed) binding ([specific total counts minus specific experimental counts]/specific total counts × 100 = percent occupancy). Raw occupancy values determined in this manner over a range of plasma and CSF values were then used to construct a normalized curve where the theoretical maximum occupancy value was defined as 100% and occupancies relative to plasma or CSF values were fit to a […] (hyperbola) curve (GraphPad Prism, San Diego, CA, USA). […] In separate experiments, plasma, CSF, and brain tissue was collected at time points following dosing to directly measure compound levels and corresponding OX2R occupancies at these times. Resulting occupancy relative to measured plasma levels of compound was fit to a normalized binding curve as described previously.

Orexin 2 receptor = molecular target: T1, Orexin 2 receptor (Homo sapiens, UniProt O43614); experiment: Orexin 2 receptor binding kinetics; conditions: for T1/2 ON (binding half-life): almorexant applied 3-fold above its Kd (value an underestimate); for koff: read-out: KOFF (dissociation constant)
T1 sequence (O43614 1-444): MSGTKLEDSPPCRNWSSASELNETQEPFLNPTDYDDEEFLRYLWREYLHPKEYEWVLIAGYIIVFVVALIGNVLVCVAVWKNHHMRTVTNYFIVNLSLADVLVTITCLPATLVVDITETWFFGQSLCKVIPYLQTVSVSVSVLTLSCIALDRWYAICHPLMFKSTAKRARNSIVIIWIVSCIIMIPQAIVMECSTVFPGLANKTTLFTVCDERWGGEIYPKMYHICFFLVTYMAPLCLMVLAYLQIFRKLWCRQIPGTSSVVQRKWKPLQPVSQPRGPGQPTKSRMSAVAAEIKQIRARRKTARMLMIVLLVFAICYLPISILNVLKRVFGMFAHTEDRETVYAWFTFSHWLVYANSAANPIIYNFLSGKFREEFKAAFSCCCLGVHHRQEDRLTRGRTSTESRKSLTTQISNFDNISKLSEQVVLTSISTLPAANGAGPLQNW

OX2R [2] = molecular target: T2, OX2R (Rattus norvegicus, UniProt P56719); parameters: method as in earlier work; conditions: ref 29 (Dugovic et al. 2009); cited from earlier work
T2 sequence (P56719 1-460): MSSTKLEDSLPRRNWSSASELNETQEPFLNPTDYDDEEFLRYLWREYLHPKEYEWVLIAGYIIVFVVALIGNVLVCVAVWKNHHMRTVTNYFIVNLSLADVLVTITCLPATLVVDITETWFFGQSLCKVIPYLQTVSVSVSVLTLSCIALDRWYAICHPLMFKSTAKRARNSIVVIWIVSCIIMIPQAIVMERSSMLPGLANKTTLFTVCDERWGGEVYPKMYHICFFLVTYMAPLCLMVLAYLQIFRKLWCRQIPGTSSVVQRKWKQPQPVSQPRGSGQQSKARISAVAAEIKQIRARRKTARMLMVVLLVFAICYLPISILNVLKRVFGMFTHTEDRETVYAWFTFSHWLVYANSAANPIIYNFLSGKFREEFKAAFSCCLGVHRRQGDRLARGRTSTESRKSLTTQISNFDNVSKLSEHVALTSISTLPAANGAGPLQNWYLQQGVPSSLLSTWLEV

rats = experiment: Rat telemetry polysomnography (time in active wake and sleep stages); assay type: in vivo; conditions: 100 mg/kg
Protocol: The mean time spent in sleep stages was determined in radio-telemetry-implanted mice, rats, dogs, and rhesus monkeys as first described by Renger and colleagues and subsequently by Winrow and colleagues with minor modifications. For baseline studies, recordings were taken continuously from unperturbed mice, rats, dogs, and monkeys for 6, 6, 10, or 5 days, respectively, and the mean time spent in all sleep stages in 30-min intervals were averaged and plotted onto a single 24-h period (Figure 1). Almorexant is a DORA [43] that was previously in clinical development for the treatment of insomnia. The clinical development program for almorexant was terminated in early 2011. […] In all cases, mean time in active wake, quiet wake, SWS, and REM sleep was determined for each 30-min interval for 3 days of each condition and averaged onto a single 24-h period. […] Statistical differences in mean time spent in active wake, quiet wake, SWS, and REM sleep between vehicle- and compound-treated groups at 30-min time points were determined by a linear mixed-effects model applied t-test.

OX2R [3] = molecular target: T3, OX2R (Homo sapiens, UniProt O43614); experiment: OX2R occupancy, ex vivo radioligand-binding displacement in transgenic rats expressing human OX2R; parameters: from tissue; host or cells: brain homogenate of transgenic rats expressing hOX2R under the rat enolase promoter; species or system transgenic rat; conditions: satellite rats, 100 mg/kg, treatment at onset of inactive phase
T3 sequence (O43614 1-444): T1 sequence (O43614 1-444)
Source text: Frozen tissue was weighed and thawed coincident with homogenization.

rhesus monkeys [4] = conditions: sleep-promoting doses; cited from earlier work
rhesus monkeys [5] = experiment: Rhesus monkey polysomnography (active wake); assay type: in vivo; conditions: 10 mg/kg p.o. 2 h before lights out, 10 mg/kg
Protocol: Animals were fed on a calorie-controlled diet of laboratory chow supplemented with fruit and vegetables. Water was available ad libitum with the exception of those monkeys trained to perform cognitive tasks, for which access was restricted for up to 4 h prior to and during cognitive testing. Treatment occurred at 14:40 (Zeitgeber time [ZT] 10:10) in a balanced 1-day cross-over design: 1 day of drug or vehicle followed by 6 days of baseline followed by 1 day of vehicle or drug. Cognition tasks were scheduled for next-day evaluation as described below. Sleep/wake architecture was scored according to vigilance state (active wake, quiet wake, delta sleep I, delta sleep II, and REM sleep) at 30-minute intervals and analyzed as previously described. Spectral analysis of continuous EEG was quantified between vehicle and compound after binning continuous frequencies into canonical frequency bands (reported herein: Delta, 0.5 – 4 Hz; Theta, 4.0 – 7 Hz; Gamma, 35.0 – 100.0 Hz). qEEG values are spectral power (uV2) log transformed before analysis and averaged over 30-minute intervals, expressed as means +/− SEM, and compared with vehicle using a mixed-model ANOVA at each time point with random effects for subject and date within subject in the R statistical computing environment (cran.us.r-project.org; the R Foundation for Statistical Computing, Vienna, Austria) using a linear mixed effects model for significance testing.

rhesus monkeys [6] = experiment: Monkey Delayed Match to Sample (DMS) task; assay type: in vivo; conditions: 10 mg/kg p.o., versus vehicle
Source text: All cognition testing occurred in the animal’s home cage equipped with a touchscreen. Each DMS trial was initiated with a single ‘sample’ image (150 × 200 pixels: 1.8 inches × 2.3 inches) in one of eight colors presented at the center of a touchscreen. Evaluation began when the monkey touched the sample image, at which point the screen became blank for a retention period. Following the retention period, four choice images (150 × 200 pixels) were presented, one in each corner of the screen. One of the four choice images matched the color of the sample image, whereas the three remaining ‘distractor’ images were drawn from the pool of remaining colors. A reinforcer was provided when the monkey touched the choice image that matched the color of the sample image. […] Test sessions comprised 96 trials or lasted for up to 45 min. […] Response latencies to sample and choice images were also recorded. Values reported reflect the proportion of correct responses collapsed over all retention intervals. Differences from vehicle were examined using repeated measures ANOVA.

rhesus monkeys [7] = experiment: Monkey Serial Choice Reaction Time (SCRT) task; assay type: in vivo; conditions: 10 mg/kg p.o., versus vehicle, 10 mg/kg
Source text: Each SCRT trial was initiated with the appearance of 10 blue square ‘target’ images evenly distributed at 3-inch intervals around the perimeter of a touchscreen presented together with a centrally located circular ‘centering’ image (1.4 inch diameter circle). The task began with the monkey touching the centering image, which then turned gray. The monkey was then required to touch the centering image continuously throughout a variable pre-cue interval of 0.25-7.5 s. On completion of the pre-cue interval, one of the blue target images was cued by turning red for one of four cue durations before turning back to blue. To obtain a reward, the monkey was required to touch the target image that had been ‘cued’ red within a 5 s limited hold period. […] On completion of the trial, an inter-trial interval of 2 s was initiated prior to the next trial. […] If the monkey initiated a trial but removed its hand from the touchscreen prior to the appearance of the cue, the trial was terminated and the screen was blanked during a 2 s inter-trial interval. Sessions were terminated after 20 min. Cue location and duration were pseudo-randomly assigned. Cue duration and the target size were titrated for each subject on the basis of performance during previous baseline sessions to yield a performance of 60–80% correct responses for the trials of the shortest cue duration. The briefest cue duration varied from 0.04–0.1 s and the cues varied in size from 0.2–0.7 inches, although each cue had the same touch-sensitive area of 1.75 inches. Values reported in the current study reflect the proportion of correct responses to targets after cues of the shortest duration only.

| Structure (SMILES) | KON (association constant) (Orexin 2 receptor) [mol⁻¹ min⁻¹] | Kd (Orexin 2 receptor) [nM] | T1/2 OFF (half-life off-rates) (Orexin 2 receptor) [h] | T1/2 ON (binding half-life) (Orexin 2 receptor) | koff (Orexin 2 receptor) [s⁻¹] | Cognitive assessment in DMS and SCRT tasks within 2 h following treatment (rhesus monkeys [4]) | other results |
| --- | --- | --- | --- | --- | --- | --- | --- |
| CNC(=O)[C@@H](c1ccccc1)N1CCc2cc(OC)c(OC)cc2[C@@H]1CCc1ccc(C(F)(F)F)cc1 [Almorexant] | 1.58e+07 | 0.048 | 4.47 | 162^a min | 4.49e-05 |  | Levels within the CSF at 10 h [1]: undetectable; OX2R occupancy above which significant changes appeared (OX2R [2]): above 89%; OX2R occupancy at which efficacy was not observed (OX2R [2]): 78%; Duration of active wake reduction following treatment (rats; dosed during active phase): up to 7.5 h; Duration of active wake reduction following treatment (rats; inactive-phase treatment): up to 11 h; OX2R occupancy at 10 h (OX2R [3]): remained elevated |
| CN1C(=O)CN=C(c2ccccc2)c2cc(Cl)ccc21 [Diazepam] |  |  |  |  |  | substantial deficits | Active wake late in the inactive phase and next morning (residual sleep effect) (rhesus monkeys [5]): promoted sleep throughout the normal resting period and into the subsequent active phase; Active wake late in the inactive phase and next morning (residual sleep effect) (rhesus monkeys [5]; listed as diazepam): significantly attenu-ated active wake; Next-day recognition memory (DMS), 14 h after dosing (rhesus monkeys [6]): impacted memory and attention; Next-day recognition memory (DMS), 14 h after dosing (rhesus monkeys [6]; listed as diazepam): Significant deficits; Next-day attention (SCRT, correct responses to shortest cues), 16 h after dosing (rhesus monkeys [7]): impacted memory and attention; Next-day attention (SCRT, correct responses to shortest cues), 16 h after dosing (rhesus monkeys [7]; listed as diazepam): significant deficits |
| Cc1ccc(-c2ncccn2)c(C(=O)N2C[C@H](COc3ccc(F)cn3)CC[C@H]2C)c1 [MK-6096, [(2R,5R)-5-{[(5-fluoropyridin-2-yl)oxy]methyl}-2-methylpiperidin-1-yl][5-methyl-2-(pyrimidin-2-yl)phenyl]methanone] | 1.69e+07 | 0.338 | 1.97 | 62.9 min | 0.000113 |  |  |
| Cc1nc(C(=O)N2CCCC[C@H]2CNC(=O)c2cccc3occc23)c(-c2ccc(F)cc2)s1 [SB-649868] | 2.56e+07 | 0.163 | 0.95 | 37.0 min | 0.00021 |  |  |
| Cc1ccc(-c2nc3ccc(C)cn3c2CC(=O)N(C)C)cc1 [Zolpidem] |  |  |  |  |  | substantial deficits |  |
